Measured values published in US8048924B2, “Methods and compositions employing 4-aminophenylacetic acid compounds” (Biocon Limited, priority 2001, dated 2011).
Several values for one entry are separate records, joined by “and”; a condition that tells them apart may be missing. Equal entries are not always repeated.

Assays:
DNBS colitis = DNBS colitis in the rat, equimolar rectal doses of 5-ASA, 4-APAA and mixture; assay type: in vivo, male Lewis rats; settings: for average severity score for necrosis, Adventitia / average severity score for necrosis, Mucosa / average severity score for necrosis, Muscularis / average severity score for necrosis, Submucosa: colon histology, scale 1-5, intrarectal twice daily for four days; for reduction in colon:body weight [% BW] / reduction of adhesion scores: rectal b.i.d. 4 days; for reduction in colon:body weight [% BW]: 5-ASA 50 mg/kg, 4-APAA 49.5 mg/kg, mixture 50+49.5 mg/kg; for reduction of adhesion scores: vs vehicle/DNBS
Source text: The purpose of this study was to histologically evaluate and compare the effects of three different therapeutic agents administered intrarectally (twice daily for four days) to male Lewis rats following intrarectal administration of dinitrobenzene sulfonic acid (DNBS). DNBS induced colitis in rats according to an established experimental model (see, for example, Bertran et al., “Intracolonic administration of zileuton, a selective 5-lipoxygenase inhibitor, accelerates healing in a rat model of chronic colitis,” Gut. 38(6):899-904 (1996), and Blau et al., “Relation between colonic inflammation severity and total low-molecular-weight antioxidant profiles in experimental colitis,” Dig Dis Sci. 45(6):1180-1187 (2000), the entire disclosures of which are incorporated herein by reference). SHAM and DNBS groups served as negative and positive controls, respectively.
Trimmed specimens of colon from 27 male rats were tested, including microtoming, and hematoxylin and eosin staining. The resulting 27 slides (1 transverse section per slide) were examined microscopically. Except for one rat from the SHAM group and one rat from the DNBS group, all slides had their labels taped over to facilitate blind reading. Lesions were graded on a scale of 1-5 (1=minimal; 2=mild; 3=moderate; 4=moderately-severe; 5=severe).
Because the pattern of necrosis often varied from section to section, the individual intestinal layers were scored separately.
Dinitrobenzene sulfonic acid (DNBS) colitis was induced (no ether anesthesia) in 4 groups 4 of 6 Lewis rats each. One DNBS group was dosed with vehicle (0.7% methyl cellulose) as well as an additional sham group of 6 animals that received a saline enema instead of DNBS. Intrarectal (ir) dosing was performed in conscious animals b.i.d. for 4 days. Drug treatments were as follows: • 5-aminosalicylic acid (5-ASA): 50 mg/kg • 4-aminophenylacetic acid (4-APAA): 49.5 mg/kg (equimolar to 5-ASA) • Mixture: 5-ASA+4-APAA: 50 mg/kg+49.5 mg/kg
Drugs were suspended in the above mentioned vehicle and staff blinded to drug groups. Daily weights and diarrhea scores were recorded. On the 5th day post-irritant rats were sacrificed, laparotomies performed and scored for intestinal adhesions and strictures; colectomized and colon weights recorded, colons opened longitudinally and inflammation/ulcerations scored.
The anti-inflammatory effects of 3 different treatments were compared in a DNBS model of colitis in 30 male Lewis rats weighing between 218 and 260 grams.
Animals were divided into 5 groups of 6 animals in each group: • 0.7% methylcellulose (vehicle)+normal saline • 0.7% methylcellulose (vehicle)+ethanolic solution of 2,4-dinitrobenzenesulfonic acid (DNBS) 30 mg • 5-ASA at 100 mg/kg·day+DNBS 30 mg/rectally • 4-APAA at 99 mg/kg·day+DNBS 30 mg/rectally • 5-ASA+4-APAA mixture (APAZA™) at 199 mg/kg·day+DNBS 30 mg/rectally
Experimental colitis was induced under light anesthesia (ketamine/xylazine) in 4 of 5 groups by instilling DNBS (30 mg) rectally at a volume of 0.5 mL to fasted rats. Each group of animals received rectal twice daily (bid) doses of either vehicle (0.7% methylcellulose) or test compounds (5-ASA, 4-APAA or APAZA™) for 4 days beginning 24 hours after either the normal saline or DNBS irritant was instilled. Body weight and incidence of diarrhea were recorded daily. Each animal in the 4 DNBS groups and in the single parallel saline group was sacrificed 5 days post irritant. Laparotomies and colectomies were performed and animals were scored for the presence and severity of intestinal adhesions, strictures, inflammation, and ulceration. Colon: body weight ratios were determined and tissue was examined histologically.

[1] = Single oral dose plasma pharmacokinetics and elimination of APAZA and metabolites in mice; assay type: in vivo, male CD-1 mice
Experimental: Initial single dose pharmacokinetic studies with the APAZA™ compound have been conducted in dogs and mice. A study was completed in order to determine the plasma pharmacokinetics and elimination of the APAZA™ compound and its metabolites (5-ASA, 4-APAA, 5-aceASA and 4-aceAPAA) following single oral dose administration to male CD-1 mice. […] When normalized to molar values, the Cmax values for all the APAZA™ metabolites were less than APAZA™; the values ranged from 2.68 to 13.8 μM. However, the normalized APAZA™ AUC∞ value was not greater than all the other metabolites; these values ranged from […]. […] The Tmax values for APAZA™ and its metabolites were 1 hour and 4 hours, respectively.

Row | SMILES | average severity score for necrosis, Adventitia (DNBS colitis) | average severity score for necrosis, Mucosa (DNBS colitis) | average severity score for necrosis, Muscularis (DNBS colitis) | average severity score for necrosis, Submucosa (DNBS colitis) | reduction in colon:body weight [% BW] (DNBS colitis) | reduction of adhesion scores (DNBS colitis) | AUC(0-inf) ([1]; male, CD-1, mouse, in vivo, po) | Cmax ([1]; male, CD-1, mouse, in vivo, po) | Tmax ([1]; male, CD-1, mouse, in vivo, po) | half-life ([1]; male, CD-1, mouse, in vivo, po) | plasma concentration at 24 hours ([1]; mouse, in vivo, po) | plasma concentration at 24 hours ([1]; single oral dose of APAZA, male CD-1 mice)
1 | Nc1ccc(O)c(C(=O)O)c1 [5-ASA, 5-amino-2-hydroxy-benzoic acid, reference compound] | 1.67 | 4.50 | 3.5 | 4.17 | ~31% and ~30% | ~17% |  |  |  |  |  | 
2 | O=C(O)Cc1ccc(/N=N/c2ccc(O)c(C(=O)O)c2)cc1 [APAZA™, 5-(4-carboxymethyl-phenylazo)-2-hydroxy-benzoic acid] |  |  |  |  |  |  | 7430 ng·h/mL | 5930 ng/mL | 1 h | 3.34 h | below the limit of detection | 
3 | Nc1ccc(CC(=O)O)cc1 [4-APAA, (4-aminophenyl)-acetic acid] | 1.67 | 4.33 | 3.17 | 4.00 | ~31% and ~30% | ~25% |  |  |  |  |  | below the limit of detection
